Measurements from patent publication US20130261058A1, “ACCELERATION OF WOUND HEALING BY GROWTH HORMONE RELEASING HORMONE AND ITS AGONISTS” (University of Miami, priority 2010, published 2013).
“Also recorded” adds a separate entry of the source.

Experiments:
[1] = system: αSMA promoter-βGal reporter transgene; assay: βGal staining of lung fibroblasts from αSMA promoter-βGal reporter transgenic mice; format: cell-based; conditions: 100 nM and 500 nM, 24 h
Procedure: (§1) hGHRH(1-29)NH2 was obtained from Sigma. Agonist JI-38 was synthesized as reported (24, 26). The peptides were dissolved in phosphate buffered saline (PBS) at the indicated concentrations. Controls contained solvent alone. Fibroblasts were isolated using standard methods and maintained in Dulbecco's Modified Eagle Medium containing 10% FBS and antibiotics/antimycotics. For all experiments, primary fibroblasts of less than 10 passages old were used. For Western blot analysis, antibodies for αSMA, FAK and actin were obtained from Sigma while for SV1; the antibody 2317/5 was used (35). The same antibody was also used for the immunohistochemistry as previously described (36). Histology was performed on standard 5 μm sections of paraffin embedded material stained with hematoxylin/eosin. βGal-staining was performed in lung fibroblasts, isolated from transgenic mice bearing an αSMA-beta galactosidase reporter transgene. After treatment with the peptides for 24 hours, cells were washed (three times each for 5 min) with 0.1M PBS (pH 7.4), and fixed with 0.05% glutaraldehyde in PBS, for 10 min at room temperature. After three more washes, cells were stained with 1 mg/ml of 5-bromo-4-chloro-3indonyl β-D-galactopyranoside, 5 mM potassium ferrocyanide, 5 mM potassium ferricyanide and 2 mM MgCl2) overnight at 37° C.
(§2) αSMA is an actin isoform that confers tensional and contractile activity (25,26). […]

[2] = system: α-smooth muscle actin (αSMA); assay: Immunoblot analysis of αSMA expression in MEFs; format: cell-based, mouse
Procedure: as §1
αSMA is an actin isoform that confers tensional and contractile activity (25,26). Typically SMA is selectively expressed in smooth muscle cells of adult animals, but is induced in activated fibroblasts (myofibroblasts) during wound healing, within the stroma of many tumors, and in general under conditions where there is extensive tissue reorganization and regeneration (27,28). […] Of interest, this effect was significant at a concentration of 100 nM but not 500 nM of either peptide. A similar pattern of expression was found for focal adhesion kinase (FAK), an enzyme which plays a role in cell migration and invasion (29). The activation of αSMA in fibroblasts following GHRH treatment was confirmed in lung fibroblasts isolated from transgenic mice bearing a reporter β-galactosidase (βGal) transgene under the regulation of the αSMA promoter/enhancer (30). Cells from these mice display βGal positivity when αSMA expression is activated (30).

MEFs [3] = assay: Cell proliferation by Trypan blue exclusion assay in MEFs; format: cell-based, mouse
Procedure: (§3) The rate of cell proliferation was evaluated by the Trypan blue exclusion assay under inverted microscope. Cell migration was performed by the “scratch” assay as described, exposing cells to the peptides for 18 h (33). For the transwell-based migration assay, MEFs were seeded on 8 μm pore size transwells (Corning) and after 5 days exposure to the peptides at the indicated concentration, cell number was evaluated in the bottom compartment. All in vitro experiments were performed in triplicate and similar results were obtained.
(§4) Subsequently MEFs were subjected to scratch wound migration assays in vitro, following exposure to GHRH and 31-38 at 100 nM. […] A considerable, notwithstanding not significant, stimulation of cell migration, by about 2-fold as compared to the controls, was also evidenced at 500 nM GHRH or 31-38. In order to rule out the possibility that the results of these two migration assays were simply due to the increased proliferation, MEFs were exposed to the peptide analogs and cell proliferation was evaluated.

subcutaneous peptidases = conditions: cited from earlier work
pituitary GHRH receptor = conditions: subcutaneous administration; cited from earlier work
[4] = system: 4 mm circular skin wounds; assay: Histology, fibroblast counting and Van Gieson staining of 4 mm skin wounds; format: in vivo, mice; conditions: for content of fibroblasts in wounds (histology) compared to controls: day 5, 100 nM twice daily; for increase of fibroblast density in the wound area: vs controls, direct counting, 100 nM twice daily, p<0.05, FIG. 6
Procedure: FIG. 6. Quantification of fibroblast content in 4 mm circular skin wounds in mice exposed to GHRH or GHRH agonist JI-38 twice per day at 100 nM on day 5 and 8. Fibroblast number was assessed by direct counting of fibroblast in at least 3 random optic fields in the wound areas under light microscope and expressed relative to the fibroblast content in the controls on day 5. Data are expressed as mean±SEM. *, p<0.05.
as §1
(§5) Wild-type mice of mixed C57BL6/FVB genetic background, originally obtained by Jackson Laboratories were maintained in our laboratory. Care of animals was in accord with University of Athens Institutional guidelines. The reporter αSMA-βGal mice have been described elsewhere (32). Wound healing assay in vivo was performed after administration of anesthesia (100 mg/kg ketamine, 10 mg/kg xylazine). Mice were shaved in the back, wiped with ethanol and wounds were cut using a biopsy punch (4 mm). The skin was grabbed at dorsal midline and placed over a cardboard backing on one side of the skin fold. The biopsy punch was pressed until both layers of the skin were punched and the cardboard was reached. Four wounds were performed per mouse, two on each side of the dorsal midline, at equal distance, so that the tension of the skin would be equal all over the mouse back and would not influence the contraction of the wounds. The experimental protocol was reviewed and approved by the University of Athens Animal Experimentation Committee. GHRH and JI-38 (100 nM) were applied twice daily in a volume of approximately 50 μl. At least 10 wounds for each of the control (vehicle, PBS), GHRH or JI-38 were observed. In order to avoid study variation due to the wound healing variability between different experimental animals, each mouse was its own control. For wound area measurements digital pictures of wounds were analyzed by the ImageJ (N1H) software. Wound size was monitored over time relative to a 4 mm diameter circular paper cutout placed next to the wound as previously described (38). For histology, 4-6 wounds per time point per group were analyzed. Similar results were obtained among different mice and histological sections for each group and representative are shown.
Tissue sections from mice wounds were de-paraffinized and rehydrated in distilled H2O. These sections were then stained in orcein (Sigma) 1% w/v in 96% ethanol for 30 min at room temperature and washed in distilled H2O. […]

MEFs [5] = assay: Transwell-based migration assay (8 μm pore) of MEFs; format: cell-based, mouse; conditions: for increase of migration through 8 μm-pore transwells compared to controls / stimulation of cell migration through transwells compared to controls: 5 days exposure; for increase of migration through 8 μm-pore transwells compared to controls: p<0.05; for stimulation of cell migration through transwells compared to controls: not significant
Procedure: as §3, §4

[6] = system: 4 mm circular skin wounds; assay: Wound healing assay in vivo, 4 mm skin biopsy wounds, wound area; conditions: mice; for wound healing compared to controls: 100 nM applied twice daily to the wound
Procedure: as §5
In order to evaluate the effect of GHRH on wound healing in vivo, wild type mice were subjected to 4 mm skin biopsies and the healing of the inflicted wounds in the presence or absence of GHRH and JI-38 at 100 nM was observed daily. In order to avoid variation in the wound healing process between different experimental animals, a control wound was always included in each mouse, thus permitting paired analysis.

MEFs [7] = assay: Scratch wound migration assay of MEFs; format: cell-based, mouse; conditions: 100 nM, 18 h
Procedure: as §3, §4

[8] = system: focal adhesion kinase (FAK); assay: Immunoblot analysis of FAK expression in MEFs; format: cell-based, mouse; conditions: 100 nM, 24 h, Western blot
Procedure: as §1, §2

SV1 = assay: Immunoblot analysis of SV1 expression in MEFs; format: cell-based, mouse; conditions: 500 nM, 24 h
Procedure: as §1, with “After three more washes, cells were stained with 1 mg/ml of 5-bromo-4-chloro-3indonyl β-D-galactopyranoside, 5 mM potassium ferrocyanide, 5 mM potassium ferricyanide and 2 mM MgCl2) overnight at 37° C.” left out
It was evaluated whether MEFs express the receptor for GHRH SV1. Primary MEFs were exposed to GHRH and agonistic GHRH analog JI-38 (24, 26) at 100 nM and 500 nM for 24 h and SV1 expression was then assessed by immunoblot analysis.

| Substance | SMA expression ([2]; 100 nM, 24 h, immunoblot) | SMA expression ([2]; 500 nM, compared with 100 nM) | proliferation of MEFs (MEFs [3]; 100 nM) | proliferation of MEFs (MEFs [3]; 500 nM) | content of fibroblasts in wounds (histology) compared to controls [4] | collagen fibers in the lamina propria, Van Gieson staining ([4]; day 8, 100 nM twice daily) | histology of epidermis, dermis and stroma ([4]; day 8, 100 nM twice daily) | increase of fibroblast density in the wound area [4] | migration of MEFs in 8 μm-pore transwell system (figure legend) (MEFs [5]; 100 nM) | increase of migration through 8 μm-pore transwells compared to controls (MEFs [5]; 100 nM) | stimulation of cell migration through transwells compared to controls (MEFs [5]; 500 nM) | wound healing compared to controls [6] | day on which acceleration of wound healing was first evidenced ([6]; 100 nM twice daily) [days] | time to nearly complete healing ([6]; 100 nM twice daily) | migration of MEFs in scratch assay compared to controls (MEFs [7]) | FAK expression [8] | also measured |
| --- | --- | --- | --- | --- | --- | --- | --- | --- | --- | --- | --- | --- | --- | --- | --- | --- | --- |
| [Dat^1, Gln^8, Orn^12,21, Abu^15, Nle^27, Asp^28, Agm^29]hGH-RH(1-29)NH2 [JI-38] | stimulated; also recorded: induced | less pronounced | no considerable effect | no considerable effect | to a lesser extent; also recorded: considerable increase | could not be seen | dense and rich in fibroblasts | ~40% | significantly increased | ~3 fold | about 2 fold | considerable acceleration | 3 | about 10 days post-incision | considerably increased | induced | increase in fraction of βGal-positive (αSMA-lacZ positive) cells compared to untreated controls ([1]; listed as 31-38): about 3 fold; increase in fraction of βGal-positive (αSMA-lacZ positive) cells compared to untreated controls ([1]; listed as 51-38): ~3 fold; stability against subcutaneous peptidases (subcutaneous peptidases): resistance to degradation by subcutaneous peptidases; potency relative to GHRH in in vivo growth hormone release assay (pituitary GHRH receptor): much more potent than GHRH; potency in transwell-based migration assay relative to GHRH (MEFs [5]): more potent than GHRH; migration of MEFs in 8 μm-pore transwell system (figure legend) (MEFs [5]; 500 nM): significantly increased; migration of MEFs in scratch assay compared to controls (MEFs [7]; listed as 51-38): increased migration |
| hGHRH(1-29)NH2 | stimulated; also recorded: induced | less pronounced | stimulated proliferation | no considerable effect | increased content of fibroblasts; also recorded: considerable increase | nearly normally arranged collagen fibers | almost normal with a diffuse mild inflammatory infiltration | about 80% | significantly increased | about 2.5 fold | about 2 fold | considerable acceleration | 3 | about 10 days post-incision | considerably increased; also recorded: increased migration | induced | reformation of the covering epithelium ([4]; day 8, 100 nM twice daily): almost complete; potency histologically and macroscopically at equimolar concentrations ([6]; 100 nM twice daily): more potent than 31-38; levels of SV1 expression (SV1): upregulated |
